Test results published in patent US11518754B2, “Radiolabeled pharmaceuticals and methods of making and using same” (YALE UNIVERSITY, priority 2017, dated 2022).
Like-named read-outs stand apart in the source and are kept apart here. Each block holds one molecule with its values, some of them ahead of it.

Columns and labels:
SV2A [1] = target: SV2A (Macaca mulatta, UniProt H9EQH8); test: PET imaging studies in rhesus monkeys; details: levetiracetam 30 mg/kg i.v. or UCB-J 150 μg/kg i.v. before radiotracer injection
Sequence of SV2A (Macaca mulatta, UniProt H9EQH8) (H9EQH8 1-742): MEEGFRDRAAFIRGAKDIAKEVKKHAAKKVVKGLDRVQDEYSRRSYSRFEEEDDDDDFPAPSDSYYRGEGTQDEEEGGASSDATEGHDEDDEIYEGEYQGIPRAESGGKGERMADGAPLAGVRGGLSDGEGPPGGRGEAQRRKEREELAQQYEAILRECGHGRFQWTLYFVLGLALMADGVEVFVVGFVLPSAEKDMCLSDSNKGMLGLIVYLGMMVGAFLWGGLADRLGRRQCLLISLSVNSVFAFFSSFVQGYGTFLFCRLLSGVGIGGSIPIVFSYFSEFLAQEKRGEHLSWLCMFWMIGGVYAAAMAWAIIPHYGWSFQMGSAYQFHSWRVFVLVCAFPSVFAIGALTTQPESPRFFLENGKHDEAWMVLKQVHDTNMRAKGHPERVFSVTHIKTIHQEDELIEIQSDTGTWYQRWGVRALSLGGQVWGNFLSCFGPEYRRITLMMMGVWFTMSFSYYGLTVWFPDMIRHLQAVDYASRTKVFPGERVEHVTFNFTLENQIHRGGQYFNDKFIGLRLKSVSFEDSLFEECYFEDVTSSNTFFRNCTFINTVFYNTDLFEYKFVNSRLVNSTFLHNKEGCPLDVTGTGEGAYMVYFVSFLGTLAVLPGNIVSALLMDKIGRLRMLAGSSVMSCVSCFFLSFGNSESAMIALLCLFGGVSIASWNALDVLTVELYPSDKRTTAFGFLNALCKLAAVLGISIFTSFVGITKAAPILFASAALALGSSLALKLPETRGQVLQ
Protocol: Experiments were performed in rhesus monkeys (Macaca mulatta). Rhesus monkeys were sedated using intramuscular (i.m.) injection of ketamine and glycopyrrolate approximately 2 hours before the PET scan and anesthesia was maintained with isoflurane (1.5%-2.5%) for the duration of the experiments. Baseline PET scans were obtained after intravenous (i.v.) injection of ^11C-3, ^18F-3, ^18F-4, ^18F-5, ^18F-10, ^18F-11, or ^18F-12.
Arterial blood samples were collected during the PET scans to calculate the plasma input function and to determine the unmetabolized parent fraction using the automatic column-switching HPLC system. Plasma free fraction (fp) was measured in triplicate using the ultrafiltration method.
PET scans of the brain were acquired using the FOCUS 220 PET scanner (Siemens Preclinical Solutions) with a reconstructed image resolution of approximately 1.5 mm. After a transmission scan, the radioligand was injected i.v. as a 3 min slow bolus by an infusion pump (PHD 22/2000; Harvard Apparatus). List-mode data were acquired for 120-180 min and binned into sinograms with an applicable number of frames. Scan data were reconstructed with a Fourier rebinning/filtered backprojection algorithm with corrections for attenuation, scanner normalization, radiation scatter, and randoms. Regions of interest were manually delineated on a single representative anatomic rhesus monkey MR image registered to a template image. The regions used in this study were amygdala, brain stem, caudate, centrum semiovale, cerebellum, cingulate cortex, frontal cortex, globus pallidus, insular cortex, nucleus accumbens, occipital cortex, pons, putamen, temporal cortex, and thalamus. Registration parameters were obtained to apply the regions of interest to individual PET scans, and regional time-activity curves were generated. Regional time-activity curves of the brain were analyzed with the 1-tissue-(1T) compartment model. Fit quality was compared with the 2-tissue model and the multilinear analysis method to calculate VT.
Typical injected radioactivity amount was 0.5-5 mCi per injection, with typical injected mass amount of 1-10 μg.
Specific binding to SV2A was further examined for ^11C-3, ^18F-3, and ^18F-11 in blocking studies, where levetiracetam or UCB-J ((R)-3) was i.v. infused before injection of the radiotracers.

SV2A [2] = target: SV2A (Rattus norvegicus (Rat), UniProt Q02563)
Sequence of SV2A (Rattus norvegicus (Rat), UniProt Q02563) (Q02563 whole entry): as the sequence (H9EQH8 1-742) above, with D53E, S62A, S64G, T71A, E144D, A154T, G440S, S482A, M634L counted along it
Protocol: One Sprague Dawley rat was euthanized with carbon dioxide inhalation. The brain was harvested, rapidly frozen on dry ice and then stored at −80° C. The whole brain homogenates were obtained following published procedures. The final homogenate was suspended in 20 mM Tris-HCl buffer (pH 7.4) containing 250 mM of sucrose at a wet tissue concentration of 100 mg/mL and stored at −80° C. until use.
For competition binding experiments, 0.5 mg of the rat brain homogenates in 800 μL of binding buffer (2 mM MgCl2 in 50 mM Tris*HCl, pH=7.4) were incubated on a thermoshaker at 37° C. for 30 min with 100 μL (R)-^11C-3 or (R)-^18F-11 and 100 μL of the compound over a range of concentrations (from 0.1 to 100 nM). Nonspecific binding was defined as the residual binding observed in the presence of 1 mM levetiracetam (100 μL). At completion of the incubation period, the membrane-bound radioligand was recovered using rapid filtration through GF/B glass fiber filters (13 mm GD/X, Whatman Inc.) which were pre-soaked for at least 30 min in 0.5% polyethyleneimine (PEI). The membranes were washed twice with 1 mL of ice-cooled binding buffer. The binding mixtures, filters and filtrates were counted using cross-calibrated gamma counters (1480 & 2480 WIZARD; Perkin-Elmer). Values of IC50 were calculated using the [sequence] PRISM™ software and converted to inhibition constants (Ki) by the Cheng-Prusoff equation.

[3] = IC50, rat brain homogenates, radioligand (R)-11C-3 or (R)-18F-11, 37° C., 30 min
[4] = Ki, converted from IC50 by the Cheng-Prusoff equation
[5] = converted from IC50 by the Cheng-Prusoff equation
[6] = rat brain homogenates, radioligand (R)-11C-3 or (R)-18F-11, 37° C., 30 min

SMILES: Cc1cnccc1CN1CC(c2cc(F)c(F)c(F)c2)CC1=O (single isomer, unassigned) [(R)-3, 1-((3-methylpyridin-4-yl)methyl)-4-(3,4,5-trifluorophenyl) pyrrolidin-2-one]
blocking of radiotracer specific binding to SV2A (SV2A [1]): blocking of specific binding
IC50 (SV2A [2]; [3]): 1.62 nM
Ki (SV2A [2]; [4]): 0.27 nM

IC50 (SV2A [2]): 12.6 nM
Ki (SV2A [2]): 2.08 nM
SMILES: Cc1cnccc1CN1CC(c2ccc(F)c(F)c2)CC1=O (single isomer, unassigned) [(R)-4, 4-(3,4-difluorophenyl)-1-((3-methylpyridin-4-yl)methyl)pyrrolidin-2-one]

SMILES: Cc1cnccc1CN1CC(c2cccc(F)c2)CC1=O (single isomer, unassigned) [(R)-11, 4-(3-Fluorophenyl)-1-((3-methylpyridin-4-yl)methyl)pyrrolidin-2-one]
IC50 (SV2A [2]; [3]): 26.9 nM
Ki (SV2A [2]; [4]): 4.44 nM

Ki (SV2A [2]; [5]): 4.43 nM
IC50 (SV2A [2]; [6]): 26.8 nM
SMILES: O=C1C[C@H](c2cccc(F)c2)CN1Cc1ccncc1 (single isomer, unassigned) [(R)-12, 4-(3-Fluorophenyl)-1-(pyridin-4-ylmethyl)pyrrolidin-2-one]

SMILES: Cc1cnccc1CN1C[C@H](c2cc(F)c(F)c(F)c2)CC1=O (single isomer, unassigned) [(S)-3, 1-((3-methylpyridin-4-yl)methyl)-4-(3,4,5-trifluorophenyl) pyrrolidin-2-one]
Ki (SV2A [2]; [5]): 12.5 nM
IC50 (SV2A [2]; [6]): 75.6 nM

Ki (SV2A [2]; [5]): 9.43 nM
IC50 (SV2A [2]; [6]): 57 nM
SMILES: Cc1cnccc1CN1C[C@H](c2ccc(F)c(F)c2)CC1=O (single isomer, unassigned) [(S)-4, 4-(3,4-difluorophenyl)-1-((3-methylpyridin-4-yl)methyl)pyrrolidin-2-one]

Ki (SV2A [2]; [5]): 115 nM
IC50 (SV2A [2]; [6]): 698 nM
SMILES: Cc1cnccc1CN1C[C@H](c2cc(F)cc(F)c2)CC1=O (single isomer, unassigned) [(S)-5, 4-(3,5-Difluorophenyl)-1-((3-methylpyridin-4-yl)methyl)pyrrolidin-2-one]

SMILES: Cc1cnccc1CN1CC(c2cccc(F)c2)CC1=O (single isomer, unassigned) [(S)-11, 4-(3-Fluorophenyl)-1-((3-methylpyridin-4-yl)methyl)pyrrolidin-2-one]
IC50 (SV2A [2]; [3]): 109 nM
Ki (SV2A [2]; [4]): 18.2 nM

IC50 (SV2A [2]): 28.2 nM
Ki (SV2A [2]): 4.66 nM
SMILES: O=C1CC(c2cccc(F)c2)CN1Cc1ccncc1 (single isomer, unassigned) [(S)-12, 4-(3-Fluorophenyl)-1-(pyridin-4-ylmethyl)pyrrolidin-2-one]

Ki (SV2A [2]; [5]): 0.58 nM
IC50 (SV2A [2]; [6]): 3.52 nM
SMILES: Cc1cnccc1CN1C[C@@H](c2cc(F)cc(F)c2)CC1=O (single isomer, unassigned) [Compound (R)-5, 4-(3,5-Difluorophenyl)-1-((3-methylpyridin-4-yl)methyl)pyrrolidin-2-one]

blocking of radiotracer specific binding to SV2A (SV2A [1]): blocking of specific binding
SMILES: CC[C@@H](C(N)=O)N1CCCC1=O [levetiracetam, reference compound]
